Our source for the EC50 values is US20250136606A1, “MODULATORS OF TRPML, THEIR COMPOSITIONS AND METHODS OF USE” (Caraway Therapeutics, Inc., priority 2021, published 2025).

Common to all, as to type: cell-based
In test [1] the target is T1, TRPML3 (Homo sapiens, UniProt Q8TDD5).
T1 construct: expressed in transfected cells
T1 sequence (Q8TDD5 1-553): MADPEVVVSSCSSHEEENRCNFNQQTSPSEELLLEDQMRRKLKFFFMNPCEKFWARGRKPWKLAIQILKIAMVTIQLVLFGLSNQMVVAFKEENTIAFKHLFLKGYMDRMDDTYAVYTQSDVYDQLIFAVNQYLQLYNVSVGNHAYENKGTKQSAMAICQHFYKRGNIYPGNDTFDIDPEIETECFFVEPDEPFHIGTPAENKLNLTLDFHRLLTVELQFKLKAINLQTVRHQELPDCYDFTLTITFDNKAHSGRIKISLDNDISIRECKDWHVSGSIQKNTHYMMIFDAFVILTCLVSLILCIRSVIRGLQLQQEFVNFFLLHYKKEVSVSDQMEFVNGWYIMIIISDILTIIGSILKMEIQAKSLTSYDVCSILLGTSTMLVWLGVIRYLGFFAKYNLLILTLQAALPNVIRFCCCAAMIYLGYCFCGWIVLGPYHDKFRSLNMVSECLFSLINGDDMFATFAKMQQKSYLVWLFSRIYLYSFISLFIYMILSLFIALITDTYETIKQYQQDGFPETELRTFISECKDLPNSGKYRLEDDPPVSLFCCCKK
Put plainly: Fluorescent TRPML3 assay (performed as for TRPML1, substituting the TRPML3 subtype). The method in brief: (§1)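 HEK-293 Trex, dox-induced (0.5 ug/mL), mutated for surface expression. Fluo4-AM 1 micromolar load ~60 min, dark; buffer modified Ringer's, 10 mM Ca. Cpds 20 micromolar–6 nanomolar final, half-log, n=3. Read ex 480/em 540; % activity vs controls; EC50 nonlinear fit.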

Test [2] addresses TRPML1 (Homo sapiens, UniProt Q9GZU1). Put plainly: Fluorescent TRPML1 assay (Fluo4-AM calcium fluorescence in doxycycline-induced HEK-293 Trex cells). The method in brief: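 HEK-293 Trex cells stably carrying human TRPML1 (surface-trafficking mutant) were induced overnight with 0.5 ug/mL doxycycline, loaded with 1 micromolar Fluo4-AM, and suspended in Ringer's with 10 mM calcium. Compounds at 20 micromolar to 6 nanomolar final, half-log steps, triplicate; fluorescence 480/540 nm gave percent activity versus controls and EC50 by non-linear regression.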

The target in test [3] is T2, TRPML2 (Homo sapiens, UniProt Q8IZK6).
T2 construct: expressed in transfected cells
T2 sequence (Q8IZK6 1-566): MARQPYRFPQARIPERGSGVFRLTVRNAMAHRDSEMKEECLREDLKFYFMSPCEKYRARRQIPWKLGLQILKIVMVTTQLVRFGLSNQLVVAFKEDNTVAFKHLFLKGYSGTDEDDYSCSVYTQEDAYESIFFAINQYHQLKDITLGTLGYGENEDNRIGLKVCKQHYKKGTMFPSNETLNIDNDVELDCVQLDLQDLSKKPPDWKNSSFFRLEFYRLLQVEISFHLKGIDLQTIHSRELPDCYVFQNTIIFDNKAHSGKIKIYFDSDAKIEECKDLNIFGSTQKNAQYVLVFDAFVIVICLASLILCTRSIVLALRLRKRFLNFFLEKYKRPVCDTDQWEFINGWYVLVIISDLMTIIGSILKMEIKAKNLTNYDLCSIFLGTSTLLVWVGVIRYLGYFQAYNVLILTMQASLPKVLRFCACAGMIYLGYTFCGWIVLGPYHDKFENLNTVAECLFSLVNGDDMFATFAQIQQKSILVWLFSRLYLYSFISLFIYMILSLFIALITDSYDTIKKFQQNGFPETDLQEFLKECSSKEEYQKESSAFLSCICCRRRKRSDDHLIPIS
The test can be described thus: Fluorescent TRPML2 assay (performed as for TRPML1, substituting the TRPML2 subtype). In short, it runs like this:
as §1

Sequence of TRPML1 (Q9GZU1 whole entry L15A/L16A/L577A/L578A, form open): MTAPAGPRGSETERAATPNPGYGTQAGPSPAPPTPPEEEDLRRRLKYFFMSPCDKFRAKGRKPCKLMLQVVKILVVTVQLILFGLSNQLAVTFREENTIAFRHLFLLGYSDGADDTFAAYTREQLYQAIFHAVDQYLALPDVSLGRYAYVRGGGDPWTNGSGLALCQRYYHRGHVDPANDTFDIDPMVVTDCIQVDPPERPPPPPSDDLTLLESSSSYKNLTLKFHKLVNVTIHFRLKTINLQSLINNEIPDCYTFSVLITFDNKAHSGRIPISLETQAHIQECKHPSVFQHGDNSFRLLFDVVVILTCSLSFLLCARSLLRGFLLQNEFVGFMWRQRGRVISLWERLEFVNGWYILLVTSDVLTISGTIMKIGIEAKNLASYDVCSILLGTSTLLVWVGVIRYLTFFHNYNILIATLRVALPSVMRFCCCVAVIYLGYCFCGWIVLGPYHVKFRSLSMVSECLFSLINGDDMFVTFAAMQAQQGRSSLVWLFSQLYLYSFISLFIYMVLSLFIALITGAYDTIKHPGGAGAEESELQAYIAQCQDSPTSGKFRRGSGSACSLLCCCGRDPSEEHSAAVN

In the case of `CC(C)(C)OC(=O)N1CCN(c2ncnc3c2c(C(F)F)cn3-c2cc(C#N)ccn2)CC1` [Compound 609, tert-buty1 4-(7-(4-cyanopyridin-2-yl)-5-(difluoromethyl)-7H-pyrrolo[2,3-d]pyrimidin-4-yl)piperazine-1-carboxylate], the values for the EC50 in test [1], in test [2] and in test [3] were under 100 nM, under 100 nM and 500 to 2000 nM, respectively.
On to `[2H]C([2H])([2H])[C@@H]1CN(c2ncnc3c2c(C(F)F)cn3-c2cc(C#N)ccn2)[C@@H](C)CN1C(=O)OC(C)(C)C` [Compound 610, tert-butyl (2R,5S)-4-(7-(4-cyanopyridin-2-yl)-5-(difluoromethyl)-7H-pyrrolo[2,3-d]pyrimidin-4-yl)-5-methyl-2-(methyl-d3)piperazine-1-carboxylate], for which the EC50 in test [1] was under 100 nM; in test [2], under 100 nM; in test [3] it was 500 to 2000 nM.
Take `C[C@H]1CN(C(=O)OC(C)(C)C)CCN1c1nccc2c1c(C1(C)CC1)cn2-c1cc(C#N)ccn1` [Compound 612, tert-butyl (S)-4-(1-(4-cyanopyridin-2-yl)-3-(1-methylcyclopropyl)-1H-pyrrolo[3,2-c]pyridin-4-yl)-3-methylpiperazine-1-carboxylate]: the figures for the EC50 in test [1], in test [2] and in test [3] were 100 to 500 nM, under 100 nM and 500 to 2000 nM, respectively.
For the molecule `C[C@@H]1CN(c2ncnc3c2c(C(F)F)cn3-c2cc(C#N)ccn2)[C@@H](C)CN1C(=O)OC1(C(F)(F)F)CCC1` [Compound 614, 1-(trifluoromethyl)cyclobutyl (2R,5S)-4-(7-(4-cyanopyridin-2-yl)-5-(difluoromethyl)-7H-pyrrolo[2,3-d]pyrimidin-4-yl)-2,5-dimethylpiperazine-1-carboxylate], the EC50 in test [1] is under 100 nM; in test [2] it was under 100 nM; in test [3], 100 to 500 nM.
In the case of `CC1CC1c1cn(-c2cc(C#N)ccn2)c2ncnc(N3CCN(C(=O)OC(C)(C)C)C[C@@H]3C)c12` (stereo partly drawn) [Compound 615, tert-butyl (3S)-4-(7-(4-cyanopyridin-2-yl)-5-(2-methylcyclopropyl)-7H-pyrrolo[2,3-d]pyrimidin-4-yl)-3-methylpiperazine-1-carboxylate], the EC50 in test [1], in test [2] and in test [3] was under 100 nM throughout.
With `CC1CC1c1cn(-c2cccc(C#N)c2)c2ncnc(N3CCN(C(=O)OC(C)(C)C)C[C@@H]3C)c12` (stereo partly drawn) [Compound 616], the EC50 in test [1], in test [2] and in test [3] was under 100 nM in each case.
Turning to `C[C@@H]1CN(c2ncnc3c2c(CC(F)(F)F)cn3-c2nccc(C#N)n2)[C@@H](C)CN1C(=O)OC(C)(C)C` [Compound 617, tert-butyl (2R,5S)-4-(7-(4-cyanopyrimidin-2-yl)-5-(2,2,2-trifluoroethyl)-7H-pyrrolo[2,3-d]pyrimidin-4-yl)-2,5-dimethylpiperazine-1-carboxylate], the EC50 in test [1] was 100 to 500 nM; in test [2] it was under 100 nM; in test [3], over 2000 nM.
In the same order, the values of `C[C@@H]1CN(c2ncnc3c2c(CC(F)(F)F)cn3-c2cc(C#N)ncn2)[C@@H](C)CN1C(=O)OC(C)(C)C` [Compound 618, tert-butyl (2R,5S)-4-(7-(6-cyanopyrimidin-4-yl)-5-(2,2,2-trifluoroethyl)-7H-pyrrolo[2,3-d]pyrimidin-4-yl)-2,5-dimethylpiperazine-1-carboxylate] are under 100 nM, under 100 nM and 100 to 500 nM.
In the same order, the values of `C[C@@H]1CN(c2ncnc3c2c(CC(F)(F)F)cn3-c2cc(C#N)ccn2)[C@@H](C)CN1C(=O)OC(C)(C)C` [Compound 619] are under 100 nM, under 100 nM and 500 to 2000 nM.
In the same order, the values of `C[C@@H]1CN(c2nccc3c2c(C(F)(F)F)cn3-c2cc(C#N)ccn2)[C@@H](C)CN1C(=O)OC(C)(C)C` [Compound 620, tert-butyl (2R,5S)-4-(1-(4-cyanopyridin-2-yl)-3-(trifluoromethyl)-1H-pyrrolo[3,2-c]pyridin-4-yl)-2,5-dimethylpiperazine-1-carboxylate] are under 100 nM, under 100 nM and 100 to 500 nM.
`[2H]C([2H])([2H])C(OC(=O)N1C[C@H](C)N(c2nccc3c2c(C(F)(F)F)cn3-c2cc(C#N)ccn2)C[C@H]1C)(C([2H])([2H])[2H])C([2H])([2H])[2H]` [Compound 623, 2-(methyl-d3)propan-2-yl-1,1,1,3,3,3-d6 (2R,5S)-4-(1-(4-cyanopyridin-2-yl)-3-(trifluoromethyl)-1H-pyrrolo[3,2-c]pyridin-4-yl)-2,5-dimethylpiperazine-1-carboxylate]: the EC50 was under 100 nM in test [1], under 100 nM in test [2] and 500 to 2000 nM in test [3].
As for `C[C@@H]1CN(c2nccc3c2c(C(F)F)cn3-c2cc(C#N)ccn2)[C@@H](C)CN1C(=O)OC(C)(C)C` [Compound 624, tert-butyl (2R,5S)-4-(1-(4-cyanopyridin-2-yl)-3-(difluoromethyl)-1H-pyrrolo[3,2-c]pyridin-4-yl)-2,5-dimethylpiperazine-1-carboxylate], the EC50 in test [1] is 100 to 500 nM; in test [2], 100 to 500 nM; in test [3] it was over 2000 nM.
For `C[C@@H]1CN(c2ncnc3c2c(C(F)(F)F)cn3C2CCCCC2)[C@@H](C)CN1C(=O)OC(C)(C)C` [Compound 625, tert-butyl (2R,5S)-4-(7-cyclohexyl-5-(trifluoromethyl)-7H-pyrrolo[2,3-d]pyrimidin-4-yl)-2,5-dimethylpiperazine-1-carboxylate], the values for the EC50 in test [1], in test [2] and in test [3] were over 2000 nM, 100 to 500 nM and over 2000 nM, respectively.
On to `C[C@@H]1CN(c2ncnc3c2c(C(F)F)cn3C2CCCCC2)[C@@H](C)CN1C(=O)OC(C)(C)C` [Compound 627, tert-butyl (2R,5S)-4-(7-cyclohexyl-5-(difluoromethyl)-7H-pyrrolo[2,3-d]pyrimidin-4-yl)-2,5-dimethylpiperazine-1-carboxylate], for which the EC50 in test [1] is 100 to 500 nM; in test [2] it was 100 to 500 nM; in test [3], over 2000 nM.
For the molecule `C[C@@H]1CN(c2ncnc3c2c(C(F)(F)F)cn3C2CCCC(C#N)C2)[C@@H](C)CN1C(=O)OC(C)(C)C` (stereo partly drawn) [Compound 629, tert-butyl (2R,5S)-4-(7-(3-cyanocyclohexyl)-5-(trifluoromethyl)-7H-pyrrolo[2,3-d]pyrimidin-4-yl)-2,5-dimethylpiperazine-1-carboxylate], the EC50 is 100 to 500 nM in test [1], 500 to 2000 nM in test [2] and over 2000 nM in test [3].
On to `C[C@@H]1CN(c2ncnc3c2c(C(F)F)cn3C2CCCC(C#N)C2)[C@@H](C)CN1C(=O)OC(C)(C)C` (stereo partly drawn) [Compound 633, tert-butyl (2R,5S)-4-(7-(3-cyanocyclohexyl)-5-(difluoromethyl)-7H-pyrrolo[2,3-d]pyrimidin-4-yl)-2,5-dimethylpiperazine-1-carboxylate], for which the values for the EC50 in test [1], in test [2] and in test [3] were 500 to 2000 nM, 500 to 2000 nM and over 2000 nM, respectively.
Regarding `C[C@@H]1CN(c2ncnc3c2c(N2CCC2)cn3-c2cccc(F)c2)[C@@H](C)CN1C(=O)OC(C)(C)C` [Compound 635, tert-butyl (2R,5S)-4-(5-(azetidin-1-yl)-7-(3-fluorophenyl)-7H-pyrrolo[2,3-d]pyrimidin-4-yl)-2,5-dimethylpiperazine-1-carboxylate], the EC50 in test [1] is 100 to 500 nM; in test [2] it was under 100 nM; in test [3] it was 100 to 500 nM.

For orientation: EC50 means the concentration needed to bring the measured effect to its halfway point.
